Drawing on PMC6019134, “1,2,6-Thiadiazinones as Novel Narrow Spectrum Calcium/Calmodulin-Dependent Protein Kinase Kinase 2 (CaMKK2) Inhibitors” (Molecules : A Journal of Synthetic Chemistry and Natural …, 2018), this text covers ΔTm and IC50 for 5 molecules.

Molecules are shown by their SMILES. Bounds are passed on as bounds.

What all share (assay type): binding
In one experiment the target is T1, STK6A (Homo sapiens, UniProt O14965).
T1 construct: TEV-cleavable (cleaved yes); made in house; host or cells: E. coli
T1 sequence (O14965 1-403): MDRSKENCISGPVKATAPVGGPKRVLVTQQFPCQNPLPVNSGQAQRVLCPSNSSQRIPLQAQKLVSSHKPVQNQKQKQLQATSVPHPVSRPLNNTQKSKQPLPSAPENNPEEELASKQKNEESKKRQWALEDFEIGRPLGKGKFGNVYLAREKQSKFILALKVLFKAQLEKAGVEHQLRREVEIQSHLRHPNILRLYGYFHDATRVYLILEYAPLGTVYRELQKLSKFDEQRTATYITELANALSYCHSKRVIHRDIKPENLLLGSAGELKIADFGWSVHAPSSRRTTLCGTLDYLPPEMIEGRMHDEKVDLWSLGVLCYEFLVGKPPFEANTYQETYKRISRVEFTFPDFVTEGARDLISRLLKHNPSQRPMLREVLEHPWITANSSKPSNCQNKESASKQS
The experiment can be described thus: DSF thermal shift, kinase panel. To be noted: 10 μM compound. The essentials:
(§1)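 Compounds were screened at 10 µM by differential scanning fluorimetry against 1 µM purified kinase in buffered glycerol/NaCl with fluorescent dye. Melting curves, recorded during a 0.05 °C/s ramp to 95 °C, were fitted to a Boltzmann function to give dTm.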

For another experiment, the target named is T2, STK3 (Homo sapiens, UniProt Q13188).
T2 construct: purchased in-house (home-made panel, SGC-style construct names)
T2 sequence (Q13188 1-491): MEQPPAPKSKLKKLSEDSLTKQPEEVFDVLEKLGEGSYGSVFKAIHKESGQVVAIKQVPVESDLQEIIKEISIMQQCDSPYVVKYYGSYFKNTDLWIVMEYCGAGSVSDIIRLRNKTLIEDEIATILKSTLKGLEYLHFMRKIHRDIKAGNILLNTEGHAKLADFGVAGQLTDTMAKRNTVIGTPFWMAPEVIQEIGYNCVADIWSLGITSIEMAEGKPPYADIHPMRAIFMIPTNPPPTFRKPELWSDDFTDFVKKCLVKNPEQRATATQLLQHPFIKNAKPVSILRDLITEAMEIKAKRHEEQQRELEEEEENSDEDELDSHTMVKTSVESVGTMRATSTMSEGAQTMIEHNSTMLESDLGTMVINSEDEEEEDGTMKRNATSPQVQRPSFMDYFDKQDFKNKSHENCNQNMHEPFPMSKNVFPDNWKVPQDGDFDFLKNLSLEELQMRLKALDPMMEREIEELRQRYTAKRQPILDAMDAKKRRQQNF
The experiment can be described thus: DSF thermal shift, kinase panel. To be noted: 10 μM compound. An outline of the steps:
as §1

The target in a further experiment is T3, STK10A (Homo sapiens, UniProt O94804).
T3 construct: TEV-cleavable (cleaved yes); made in house; host or cells: E. coli
T3 sequence (O94804 whole entry): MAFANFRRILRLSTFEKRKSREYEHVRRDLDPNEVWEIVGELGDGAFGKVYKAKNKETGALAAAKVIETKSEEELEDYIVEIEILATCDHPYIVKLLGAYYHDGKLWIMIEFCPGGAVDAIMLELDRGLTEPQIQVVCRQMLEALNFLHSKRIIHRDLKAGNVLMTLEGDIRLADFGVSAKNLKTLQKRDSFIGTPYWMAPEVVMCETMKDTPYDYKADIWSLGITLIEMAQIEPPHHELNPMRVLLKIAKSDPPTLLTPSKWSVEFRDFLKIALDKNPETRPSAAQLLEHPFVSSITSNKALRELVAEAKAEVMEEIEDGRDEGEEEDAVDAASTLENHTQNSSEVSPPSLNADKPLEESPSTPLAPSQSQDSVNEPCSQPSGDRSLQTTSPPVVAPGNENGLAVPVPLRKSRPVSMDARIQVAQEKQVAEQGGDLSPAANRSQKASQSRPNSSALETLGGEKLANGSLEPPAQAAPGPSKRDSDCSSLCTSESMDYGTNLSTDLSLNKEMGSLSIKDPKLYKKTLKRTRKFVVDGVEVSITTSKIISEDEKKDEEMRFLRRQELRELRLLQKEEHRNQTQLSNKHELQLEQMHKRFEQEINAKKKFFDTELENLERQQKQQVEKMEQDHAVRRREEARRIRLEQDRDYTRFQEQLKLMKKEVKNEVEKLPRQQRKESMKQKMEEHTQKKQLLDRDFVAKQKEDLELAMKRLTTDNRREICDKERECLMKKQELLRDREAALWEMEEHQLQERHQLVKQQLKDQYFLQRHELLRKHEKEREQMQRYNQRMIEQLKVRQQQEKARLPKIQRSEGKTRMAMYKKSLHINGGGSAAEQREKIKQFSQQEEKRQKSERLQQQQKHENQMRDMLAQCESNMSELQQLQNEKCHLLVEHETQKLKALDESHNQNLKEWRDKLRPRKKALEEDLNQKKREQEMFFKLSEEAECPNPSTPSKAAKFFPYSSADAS
The experiment can be described thus: DSF thermal shift, kinase panel. The settings on record: 10 μM compound. An outline of the steps: as §1

Another experiment deals with T4, SRPK1A (Homo sapiens, UniProt Q96SB4).
T4 construct: purchased in-house (home-made panel, SGC-style construct names)
T4 sequence (Q96SB4 whole entry): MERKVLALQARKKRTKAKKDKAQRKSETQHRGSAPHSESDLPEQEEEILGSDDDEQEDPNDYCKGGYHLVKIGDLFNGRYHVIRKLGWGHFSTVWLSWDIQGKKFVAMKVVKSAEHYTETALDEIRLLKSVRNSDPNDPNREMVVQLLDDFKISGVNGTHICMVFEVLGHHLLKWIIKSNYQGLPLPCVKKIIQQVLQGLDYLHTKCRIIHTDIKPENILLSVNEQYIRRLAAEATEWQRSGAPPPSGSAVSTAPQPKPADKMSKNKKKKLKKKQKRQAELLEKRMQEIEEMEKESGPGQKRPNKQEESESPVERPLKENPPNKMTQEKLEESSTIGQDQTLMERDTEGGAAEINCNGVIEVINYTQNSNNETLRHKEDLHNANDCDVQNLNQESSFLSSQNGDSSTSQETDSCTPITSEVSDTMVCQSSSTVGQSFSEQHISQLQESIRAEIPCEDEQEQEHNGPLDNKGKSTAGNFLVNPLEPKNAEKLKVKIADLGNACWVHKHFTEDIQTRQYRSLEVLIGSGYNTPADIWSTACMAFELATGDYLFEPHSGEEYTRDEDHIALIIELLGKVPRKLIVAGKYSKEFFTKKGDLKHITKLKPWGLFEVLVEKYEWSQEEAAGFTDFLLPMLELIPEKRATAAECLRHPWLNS
As to the kind of experiment: DSF thermal shift, kinase panel. To be noted: 10 μM compound. An outline of the steps: as §1

A further experiment deals with T5, STK17AA (Homo sapiens, UniProt Q9UEE5).
T5 construct: TEV-cleavable (cleaved yes); made in house; host or cells: E. coli
T5 sequence (Q9UEE5 1-414): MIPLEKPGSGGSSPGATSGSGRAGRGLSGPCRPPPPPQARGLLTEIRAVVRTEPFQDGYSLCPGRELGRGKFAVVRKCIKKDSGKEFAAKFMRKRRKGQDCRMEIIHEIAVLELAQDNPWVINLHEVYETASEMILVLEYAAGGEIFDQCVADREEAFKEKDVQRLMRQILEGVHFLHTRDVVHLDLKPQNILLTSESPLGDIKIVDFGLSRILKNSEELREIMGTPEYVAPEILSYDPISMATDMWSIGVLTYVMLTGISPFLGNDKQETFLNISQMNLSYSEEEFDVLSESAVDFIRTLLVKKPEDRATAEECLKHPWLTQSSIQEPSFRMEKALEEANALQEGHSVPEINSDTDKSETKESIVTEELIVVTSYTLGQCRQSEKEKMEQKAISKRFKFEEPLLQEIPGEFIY
As to the kind of experiment: DSF thermal shift, kinase panel. To be noted: 10 μM compound. An outline of the steps: as §1

The target of the next experiment is T6, EPHA2A (Homo sapiens, UniProt P29317).
T6 construct: purchased in-house (home-made panel, SGC-style construct names)
T6 sequence (P29317 24-976): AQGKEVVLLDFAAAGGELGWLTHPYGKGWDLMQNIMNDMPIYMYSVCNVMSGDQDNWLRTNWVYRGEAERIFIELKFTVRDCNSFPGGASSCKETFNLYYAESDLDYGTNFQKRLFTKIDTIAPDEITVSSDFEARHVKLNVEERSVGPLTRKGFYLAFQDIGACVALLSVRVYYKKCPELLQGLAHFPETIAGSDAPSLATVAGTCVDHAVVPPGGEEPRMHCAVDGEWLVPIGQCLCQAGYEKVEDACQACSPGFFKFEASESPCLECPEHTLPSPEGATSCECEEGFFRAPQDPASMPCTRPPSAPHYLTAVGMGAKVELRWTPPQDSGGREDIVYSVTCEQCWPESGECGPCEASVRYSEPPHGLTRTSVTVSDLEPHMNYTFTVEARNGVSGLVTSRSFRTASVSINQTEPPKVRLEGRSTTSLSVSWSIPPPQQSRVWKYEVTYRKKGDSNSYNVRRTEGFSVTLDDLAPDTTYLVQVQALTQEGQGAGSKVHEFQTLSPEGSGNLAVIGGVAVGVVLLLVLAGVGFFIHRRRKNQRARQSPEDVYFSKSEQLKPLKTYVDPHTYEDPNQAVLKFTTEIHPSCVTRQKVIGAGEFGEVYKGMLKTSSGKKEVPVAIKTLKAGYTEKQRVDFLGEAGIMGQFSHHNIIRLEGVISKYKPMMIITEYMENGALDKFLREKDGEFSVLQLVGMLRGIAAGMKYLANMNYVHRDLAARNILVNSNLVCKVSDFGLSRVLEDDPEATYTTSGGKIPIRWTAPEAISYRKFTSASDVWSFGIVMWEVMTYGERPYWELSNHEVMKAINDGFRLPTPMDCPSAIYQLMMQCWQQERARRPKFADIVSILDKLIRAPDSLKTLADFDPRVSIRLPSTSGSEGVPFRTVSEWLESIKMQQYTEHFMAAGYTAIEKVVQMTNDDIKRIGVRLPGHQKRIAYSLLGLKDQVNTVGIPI
As to the kind of experiment: DSF thermal shift, kinase panel. To be noted: 10 μM compound. The essentials:
as §1

Experiment [1] deals with T7, CAMKK2 kinase domain (132–470) (Homo sapiens, UniProt Q96RR4).
T7 construct: CAMKK2 kinase domain (132–470) was cloned in a pNIC-Bio2 vector; 10xHis tag followed by a TEV site (N, cleaved yes); made in house; host or cells: E. coli BL21(DE3)-R3-BirA
T7 sequence (Q96RR4 132-470): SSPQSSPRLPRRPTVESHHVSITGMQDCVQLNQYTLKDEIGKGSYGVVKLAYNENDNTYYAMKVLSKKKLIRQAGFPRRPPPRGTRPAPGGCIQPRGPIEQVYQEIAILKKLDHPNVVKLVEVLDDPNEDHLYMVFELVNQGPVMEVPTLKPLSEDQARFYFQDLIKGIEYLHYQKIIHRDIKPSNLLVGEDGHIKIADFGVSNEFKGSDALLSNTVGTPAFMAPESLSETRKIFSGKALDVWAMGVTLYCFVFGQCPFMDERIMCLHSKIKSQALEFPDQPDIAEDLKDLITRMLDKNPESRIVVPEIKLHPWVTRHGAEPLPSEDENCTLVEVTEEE
The experiment can be described thus: CaMKK2B TR-FRET tracer displacement assay. The settings on record: CaMKK2, displacement of tracer 236, average of 2 experiments.
Description: To more accurately determine the relative changes in potency of the TDZ analogues and to enable measurement of accurate IC50^’s, we developed a Time-Resolved Fluorescence Resonance Energy Transfer (TR-FRET) assay. The TR-FRET tracer displacement assays were generated using a protocol derived from the Lanthascreen binding assays (ThermoFisher Scientific, Waltham, MA, USA) [21].

With `CNC(=O)c1ccccc1Nc1nsnc(Nc2cccc(CS(C)(=O)=O)c2)c1=O` [Compound 4, N-Methyl-2-([5-({3-[(methylsulfonyl)methyl]phenyl}amino)-4-oxo-4H-1,2,6-thiadiazin-3-yl]-amino}-benzamide], the ΔTm at 10 µM is -0.1 °C at STK6A; -0.4 °C on STK3; 0.2 °C on STK10A; 0 °C on SRPK1A; -0.8 °C on STK17AA; -0.1 °C at EPHA2A.
Consider `CNC(=O)c1ccccc1Nc1nsnc(Nc2ccc(N3CCOCC3)cc2)c1=O` [Compound 5, N-Methyl-2-({5-[(4-morpholinophenyl)amino]-4-oxo-4H-1,2,6-thiadiazin-3-yl}amino)benzamide], for which the ΔTm at 10 µM on STK6A was 0.5 °C; on STK3, -0.3 °C; at STK10A it was -0.4 °C; on SRPK1A, 0 °C; at STK17AA, -0.8 °C; on EPHA2A, 0 °C.
Turning to `Cc1ccc(Nc2nsnc(Nc3cccc(C(N)=O)c3)c2=O)cc1O` [Compound 1, 3-({5-[(3-Hydroxy-4-methylphenyl)amino]-4-oxo-4H-1,2,6-thiadiazin-3-yl}amino)benzamide], the ΔTm at 10 µM was -0.3 °C at STK6A; 0.2 °C on STK3; 0.5 °C at STK10A; 0 °C at SRPK1A; -0.5 °C on STK17AA; 0.2 °C at EPHA2A. Further, the IC50 in experiment [1] is greater than 50 µM.
As for `Cc1ccc(Nc2nsnc(Nc3ccc(C(N)=O)cc3)c2=O)cc1O` [Compound 2, 4-({5-[(3-Hydroxy-4-methylphenyl)amino]-4-oxo-4H-1,2,6-thiadiazin-3-yl}amino)benzamide], the ΔTm at 10 µM amounted to 1 °C on STK6A; 2.1 °C at STK3; 0.9 °C at STK10A; 1.8 °C on SRPK1A; 2.2 °C on STK17AA; 0.5 °C on EPHA2A. In experiment [1], this molecule had an IC50 greater than 50 µM.
Turning to `Cc1ccc(Nc2nsnc(Nc3ccc4c(c3)CS(=O)(=O)C4)c2=O)cc1O` [Compound 3, 3-[(2,2-Dioxido-1,3-dihydrobenzo[c]thiophen-5-yl)amino]-5-[(3-hydroxy-4-methylphenyl)amino]-4H-1,2,6-thiadiazin-4-one], the ΔTm at 10 µM on STK6A is 0.1 °C; on STK3 it was 1.1 °C; on STK10A it was 2.2 °C; at SRPK1A it was 0 °C; at STK17AA, 1.7 °C; at EPHA2A, 0.8 °C. In experiment [1], this molecule returned an IC50 of 34 µM.
